Experimental data published in patent US20250362286A1, “SCREENING MODELS AND METHODS OF CANCER TREATMENT” (The Regents of the University of California, priority 2022, published 2025).

Columns and labels:
PA-14-13 PDOs [1] = assay: sensitivity of PDOs to doxorubicin after pre-treatment; format: cell-based; details: pre-treatment 5d, then doxorubicin 3d
Method: (§1) To determine if these effects would translate to increased sensitivity to chemotherapy, both sets of PDOs were treated with ISX9 for 5d, followed by doxorubicin for 3d. […] FIG. 8P and FIG. 8Q depicts results of tests showing that PIM-025 PDOs and PA-14-13 PDOs, respectively, pre-treated with ISX9 acquire increased sensitivity to doxorubicin.

PIM-025 PDOs [2] = assay: as above; format: cell-based; details: pre-treatment 5d, then doxorubicin 3d
Method: as §1

MDA-MB-231s = assay: CD24 mRNA expression in 2D (differentiation screening); format: cell-based
Method: (§2) FIG. 3H depicts relative CD24 mRNA expression. CD24 expression was an early indicator of response to ISX9 in 2D across several TNBC cell lines. Treatment screening of several different TNBC cell lines with ISX9 in 2D for 48h yielded four responders, as determined by CD24 mRNA expression (FIG. 3H).
These analogs were screened for their potential to differentiate MDA-MB-231s, yielding at least one new hit, CR-1 (˜98% similarity), which induced a ˜6-fold upregulation of CD24 at a concentration of 200 μM at 48h in 2D (FIG. 6).

[3] = system: Notch-activated epicardium-derived cells (NECs); details: after myocardial infarction; cited from earlier work
PA-14-13 PDOs [4] = assay: FACS analysis of CD44+/CD24- CSCs and CDH1+ cells in PDOs; format: cell-based
Source text: (§3) These figures depict flow cytometry analysis of CD44*/CD24 CSC in (FIG. 8F and FIG. 8G) PIM025 PDOs and (FIG. 8H and FIG. 8I) PA-14-13 PDOs treated with vehicle or ISX9.
(§4) FIG. 8J and FIG. 8K depict a flow cytometry analysis of CDH1^+ cells in PIM025 PDOs treated with vehicle or ISX9. FIG. 8L and FIG. 8M depict a flow cytometry analysis of CDH1^+ cells in PA-14-13 PDOs treated with vehicle or ISX9.

PIM-025 PDOs [5] = assay: as above; format: cell-based
Source text: as §3, §4

MDA-MB-436 = assay: CD24 mRNA expression in 2D for 48h; format: cell-based
Method: as §2

BT-549 = assay: CD24 mRNA expression in 2D for 48h; format: cell-based
Method: as §2

MDA-MB-468 = assay: CD24 mRNA expression in 2D for 48h; format: cell-based
Method: as §2

SUM149 = assay: CD24 mRNA expression in 2D for 48h; format: cell-based
Method: as §2

MDA-MB-231 = assay: B-Catenin localization to cell-cell junctions; format: cell-based; details: 48 hours, 2D-treated cells
[6] = cited from earlier work
Notch pathway genes = assay: RT-qPCR gene expression analysis of Notch target genes in MDAs; format: cell-based; details: 24h in HD Col1, vs vehicle
Source text: Also assessed was how the Notch pathway responded to ISX9 treatment. […] FIG. 3A depicts the results of a RT-qPCR gene expression analysis of Notch target genes in vehicle and Isx9 treated MDAs.

LL/2 lung cancer cells = assay: western blot of EMT transcription factor TWIST1; format: cell-based; details: HD Col1, 7 days
Source text: FIG. 4E depicts a western blot analysis of EMT transcription factor TWIST1 in LL/2 lung cancer cells treated with vehicle or ISX9 for 7 days in 2D TC or HD Col1.

MDAs [7] = assay: CytoTox-Fluor cytotoxicity assay; format: cell-based; details: 2D, 1-40 μM
Source text: (§5) FIG. 7C depicts the metabolic activity, cytotoxicity, and relative CD24 expression dose-response to ISX9.

MDAs [8] = assay: chemo-susceptibility to doxorubicin after pre-treatment, MTS assay; format: cell-based; details: 7d pre-treatment in HD Col1, then chemotherapy 3d; normalized to vehicle control
Method: To determine whether ISX9 could be used in a similar therapeutic function, MDAs and R40P cells were treated with vehicle or ISX9 for 7d in HD Col1, followed by chemotherapy for 3d and MTS assay to quantify viable cells.

[9] = system: MDAs and MDA-231-BrM2 (TNBC), Py8119 (Breast Cancer), HT-1080 (fibrosarcoma), Sk-HEP-1 (liver cancer), and R40P (PDAC) cells; assay: phenotype screen for anti-invasive activity in the HD Col1 model system; format: cell-based; details: HD Col1, 7 days of culture; all six cell lines
Source text: In this example, it was explored whether isoxazole derivatives could similarly induce differentiation of CSCs occupying the clinically relevant notch-activated state conferred by the HD Col1 model system of Example 1 (Table 1, FIG. 1). […] FIG. 2 includes brightfield microscopy images of cancer cell lines at 7 days of culture in HD Col1 treated with vehicle or ISX9 (scale bar=250 μm).

Notch1 = assay: immunofluorescence staining of cleaved intracellular domain of Notch1 in MDAs; format: cell-based; details: vs vehicle, even in 2D culture
Source text: FIG. 3B depicts immunofluorescence staining of cell nuclei and cleaved intracellular domain of Notch1 in vehicle and Isx9 treated MDAs.

MDAs [10] = assay: CellTiter-Fluor metabolic activity assay; format: cell-based; details: 2D, 10-40 μM
Source text: as §5

PIM025 PDOs = assay: RT-qPCR of CD24 and CDH1 expression in PDOs; format: cell-based; details: 20 μM, 48 h
Method: (§6) As a first step towards assessing the efficacy of ISX9 to differentiate patient-derived tumor cells, PDOs from the PIM025 (“hybrid epithelial” EMT status) and PA14-13 (“hybrid mesenchymal” EMT status) TNBC PDX tumors were produced and treated with 20 μM ISX9 for 48 h. […] FIG. 8D and FIG. 8E depict RT-qPCR of CD24 and CDH1 expression in PIM025 PDOs and PA-14-13 PDOs, respectively.

PA-14-13 PDOs [11] = assay: RT-qPCR of CD24 and CDH1 expression in PDOs; format: cell-based; details: 20 μM, 48 h
Method: as §6

## O=C(NC1CC1)c1cc(-c2cccs2)on1 [ISX9, Isoxazole 9]
PA-14-13 PDOs [1]
  increase in sensitivity to doxorubicin: 85.8 fold
PIM-025 PDOs [2]
  increase in sensitivity to doxorubicin: 2.9 fold
MDA-MB-231s; 48h
  CD24 mRNA expression (FC): ~31.6
MDA-MB-231s; concentration range 1-40 μM
  CD24 mRNA dose-response: upregulation of CD24 mRNA
[3]
  fibrosis and ventricular functional decline after MI: failed to mitigate fibrosis or avert ventricular functional decline after MI
PA-14-13 PDOs [4]; after 6 days of treatment
  CD44+/CD24- CSCs (FACS): reduction in CD44+/CD24− CSCs
PA-14-13 PDOs [4]; vs vehicle
  CDH1+ cells (FACS): enrichment in CDH1^+ cells
PIM-025 PDOs [5]; after 6 days of treatment
  CD44+/CD24- CSCs (FACS): reduction in CD44+/CD24− CSCs
PIM-025 PDOs [5]; vs vehicle
  CDH1+ cells (FACS): slight reduction in CDH1^+ cells
MDA-MB-436
  CD24 mRNA expression (FC): ~7.1
BT-549
  CD24 mRNA expression (FC): ~12.6
MDA-MB-468
  CD24 mRNA expression (FC): ~0.6
SUM149
  CD24 mRNA expression (FC): ~2.7
MDA-MB-231
  B-Catenin localization to cell-cell junctions: significant increase in B-Catenin localization
[6]; ip injection
  detection in heart tissue: detected
[6]; single bolus ip injection
  terminal half-life in plasma: < 15 min
Notch pathway genes
  expression of Notch pathway genes: significantly increased
LL/2 lung cancer cells
  TWIST1 protein expression (WB): reduced TWIST1 protein expression
MDAs [7]
  cytotoxicity: without any observable increase in cytotoxicity
MDAs [8]
  decrease in IC50 to doxorubicin: ~14.5 fold
[9]
  invasive capability: significant abrogation of the invasive capability
Notch1
  localization of activated Notch1 (cleaved intracellular domain): strong nucleolar localization
MDAs [10]
  metabolic activity: decrease in metabolic activity
PIM025 PDOs
  CDH1 mRNA expression: slight increase
  upregulation of CD24 mRNA transcription: 1.5 fold
PA-14-13 PDOs [11]
  upregulation of CD24: ~1,080 fold
  upregulation of CDH1: ~41 fold
